| SMILES | melting point |
| --- | --- |
| COc1ccc2cnc(N)nc2c1C(C)C | 112 to 113 °C |
| Cc1cc(Br)ccc1-n1c(CF)nc2ccc([N+](=O)[O-])cc2c1=O | 208 to 210 °C |
| COc1ccccc1C(=O)c1sc(NCCc2ccc(Cl)cc2)nc1N | 150 to 151 °C |
| CCOC(=O)c1cn(CC)c2nc(N3CCNCC3)ncc2c1=O | 155 °C |
| CCCCCCCCCCCCCCCCCC(O)c1cc(C(=O)OCC)ccc1O (stereo unspecified) | 75 °C |
| CCCOc1cc2c(cc1C(C)c1ccc(OC)cc1)OCO2 (stereo unspecified) | 84 °C |
| CN1CCC2(C)c3cc(O)cc(Cl)c3N(C)C12 (stereo unspecified) | 152 to 154 °C |
| CNC(=O)Cn1c(Cl)ccc1Cl | 193 to 194 °C |
| COc1cc(C(=O)NC=NC(=O)ON(c2ccc(C)c(NC(=O)c3ccc(OCc4ccccc4)cc3)c2)C(C)(C)C)cc(OC)c1OC | 94 °C |
| N#Cc1ccc(-c2ccc(OCC(COc3ccccc3)N(O)C=O)cc2)cc1 (stereo unspecified) | 133 to 135 °C |
| CC(C)c1n[nH]c(Cl)c1C=NC(C#N)=C(N)C#N | 145 to 150 °C |
| Cc1ccc2c(c1)C(CCO)N(c1cccc([N+](=O)[O-])c1)N(C)C2=O (stereo unspecified) | 169 to 170 °C |
| CN1Cc2c(C(=O)OCC3CCC3)ncn2-c2cccc(Cl)c2C1=O | 181 to 182 °C |
| CS(=O)(=O)c1ccc2c([N+](=O)[O-])cc3c(c2c1)C(CCl)CN3 (stereo unspecified) | 193 to 194 °C |
| CC(=O)OCc1nc2cc(Cl)c(C)cc2c(=O)[nH]1 | 220 to 225 °C |
| NNc1ccnc2c(NC(=O)c3c(Cl)cccc3Cl)cc(Cl)cc12 | 142 to 150 °C |
| COc1cc(Nc2c(C#N)cnc3cc(C#CCCO)c(OC)cc23)c(Cl)cc1Cl | 230 to 232 °C |
| CCCCn1c(=O)c2c(ncn2S(=O)(=O)c2c(C)cc(C)cc2C)n(CCCC)c1=O | 125 to 127 °C |
| CCCN1CCC23c4cccc(OC)c4OC2C2CCC3(C1=O)C(C(=O)OC)C2 (stereo unspecified) | 126 to 128 °C |
| CC(C)c1ccc(OCCCCCCCCCCCCC(Cl)(Cl)C(=O)O)cc1 | 47 to 49 °C |
| CCOC(=O)c1nc(N)sc1-c1cn2ccc(C)cc2n1 | 278 to 280 °C |
| CC(C)(C)c1c(O)[nH]c(=O)[nH]c1=O | 247 to 248 °C |
| COc1cc2ncc(C#N)c(Nc3ccccc3C)c2cc1OC | 137 to 141 °C |
| COc1cc(I)cc(C(N)=O)c1 | 175 to 176 °C |
| O=[N+]([O-])C=C1CN=C(c2ccccc2)c2sccc2N1 | 160 to 163 °C |

Second part, the molecule after the results:

| melting point | SMILES |
| --- | --- |
| 82 to 83 °C | OC(C(=Cc1cccnc1)c1ccc(F)cc1)c1ccccc1Cl (stereo unspecified) |
| 152 to 154 °C | O=C(O)[C@@H]1CCCN1C(=O)c1ccccc1 |
| > 240 °C | CCn1ncc2c(NCc3cccc(O)c3)c3ccccc3nc21 |
| 177 to 179 °C | COC(=O)C1(C(N)=O)C(C(N)=O)=NC(c2ccccc2)=C1N (stereo unspecified) |
| 160 °C | N#Cc1c[nH]nc1-c1ccccc1Cl |
| 165 to 166 °C | Cc1cccc(C)c1-n1cnc(NCc2ccccn2)nc1=O |
| 162 to 163 °C | COc1ccc(NC(=O)c2ccccc2O)cc1 |
| 199 to 202 °C | Nc1c(-c2csc(-c3ccncc3)n2)c(=O)[nH]c2ccc(N3CCCCC3)cc12 |
| 206 °C | O=C1OC2(CCN(C(=O)Nc3cnc(-c4ccccc4)cn3)CC2)c2ccccc21 |
| 129 to 131 °C | Cc1nc(-c2ccccc2)c(-c2ccccc2)n1CCCCCCNC(=O)Oc1ccccc1F |
| 156 to 159 °C | CCn1ncc2c(Cl)c3c(nc21)C(=O)c1ccccc1CC3 |
| 163 to 164 °C | Cc1cc(Cl)ccc1NC(=O)c1cccc(S(=O)(=O)N(C)c2ccc(Br)cc2)c1 |
| 94 to 97 °C | O=c1c2c(N3CCNCC3)cc(Cl)cc2n(Cc2ccccc2)c(=O)n1Cc1ccccc1Br |
| 220 °C | CC(=O)N1CC=C(c2cc(C)c(O)cc2C)CC1 |
| 114 to 116 °C | COc1ccc(/C=C/c2ccncc2[N+](=O)[O-])cc1OC1CCCC1 |
| 119 to 120 °C | c1ccc2c(c1)OCCN1CCOCCN(CCOCC1)CCO2 |

Reference: a melting point compilation (Tetko et al.; mined from patent text by program, amines drawn as free bases though some values may be those of a salt)
